Experimental data taken from patent US20230158016A1, “DELTA OPIOID RECEPTOR ANTAGONISTS REPROGRAM IMMUNOSUPPRESSIVE MICROENVIRONMENT TO BOOST IMMUNOTHERAPY” (H LEE MOFFITT CANCER CENTER AND RESEARCH INSTITUTE, INC., priority 2020, published 2023).
Counter-ions that a name gives are not always drawn.

Tested on: Bone marrow precursors
Experiment: Development of MDSC from bone marrow precursors cultured in GM-CSF and G-CSF with DOR antagonists
Type: cell-based, mice
Details: bone marrow precursors cultured 96 hours in GM-CSF and G-CSF (20 ng/ml each), increasing concentrations of antagonist
Experimental: Next the effect of DOR antagonist on M-MDSC was investigated. Bone marrow precursors were isolated and cultured for 96 hours in GM-CSF and G-CSF (20 ng/ml each) in the presence of increasing concentrations of the DOR antagonists Naltriben mesylate (NTB) or Naltrindole hydrochloride (NTD). Then, we evaluated cell viability by flow cytometry (using DAPI). […] Additionally, the number of M-MDSC (CD11b^+Ly6G^negLy6C^high) and PMN-MDSC (CD11b^+Ly6G^+Ly6C^low) was calculated.
The conjugated antibodies and probes used for flow cytometry are listed in the Key Resources Table. For surface staining, cells were labelled with the appropriate antibodies in the presence of Fc blocker. For intracellular staining, surface-labeled cells were fixed with Cytofix/Cytoperm™ Solution (BD Biosciences), washed in Perm/Wash™ 1×solution, and labelled with intracellular antibodies. Cells were then washed in Perm/Wash™ 1×and PBS. Live vs. dead cell discrimination was performed prior to antibody labeling by Zombie Fixable Viability dye (Biolegend). Ex vivo intracellular staining for IL-12 and TNFα was performed on isolated cells after stimulation for 6 hours with LPS (1 μg/ml, Sigma Aldrich) in the presence of Golgi stop (0.8 μl/ml, BD Biosciences). For IFNγ staining, cells were incubated for 5 hours with phorbol myristate acetate (PMA, 750 ng/mL, Sigma Aldrich) and ionomycin (50 μg/mL, Sigma-Aldrich) in the presence and Golgi stop (0.8 μl/ml). For ER-tracker and Mitotracker staining, cells were probed with 100 nM of ER tracker green or 200 nM of Mitotracker green (Invitrogen) and then stained for surface markers. For Mitochondrial membrane potential, cells were stained with JC-1 flow cytometry assay kit (Cayman chemicals) followed by surface markers staining. ROS were detected by DCFDA (10 μM) or Dihydroethidium (DHE, 10 μM). Data acquisition was performed in a CytoFLEX II (Beckman Coulter) or LSRII (BD Biosciences). All analysis was performed using FlowJo version 11 software.

Row | Compound | absolute number of generated MDSC (CD11b+Gr1+) | cell viability by flow cytometry (using DAPI) | number of M-MDSC (CD11b+Ly6GnegLy6Chigh) | number of PMN-MDSC (CD11b+Ly6G+Ly6Clow)
1 | Naltriben mesylate [NTB] | steady decline of MDSC as concentrations increased | strong correlation increasing concentration of either NTD or NTB and cell death | the more significant losses were observed in the M-MDSC subset | declined in number as the concentration of NTD or NTB increased
2 | Oc1ccc2c3c1O[C@H]1c4[nH]c5ccccc5c4C[C@@]4(O)[C@@H](C2)N(CC2CC2)CC[C@]314 [NTD, Naltrindole hydrochloride] | steady decline of MDSC as concentrations increased | strong correlation increasing concentration of either NTD or NTB and cell death | the more significant losses were observed in the M-MDSC subset | declined in number as the concentration of NTD or NTB increased
